Measured values reported in ChEMBL document CHEMBL1127970, “Dual metalloprotease inhibitors. IV. Utilization of thiazepines and thiazines as constrained peptidomimetic surrogates in mercaptoacyl dipeptides” (Bioorg Med Chem Lett, 1994).

Legend:
Rattus norvegicus = test: Effective dose required to inhibit angiotensin 1(AI) induced pressor response in normotensive rats when administered intravenously; format: functional; conditions: iv
[1] = target: T1, Angiotensin-converting enzyme (Rattus norvegicus, UniProt P47820); test: In vitro inhibition of angiotensin converting enzyme isolated from rat lung.; conditions: read-out: I50
T1 sequence (P47820 whole entry): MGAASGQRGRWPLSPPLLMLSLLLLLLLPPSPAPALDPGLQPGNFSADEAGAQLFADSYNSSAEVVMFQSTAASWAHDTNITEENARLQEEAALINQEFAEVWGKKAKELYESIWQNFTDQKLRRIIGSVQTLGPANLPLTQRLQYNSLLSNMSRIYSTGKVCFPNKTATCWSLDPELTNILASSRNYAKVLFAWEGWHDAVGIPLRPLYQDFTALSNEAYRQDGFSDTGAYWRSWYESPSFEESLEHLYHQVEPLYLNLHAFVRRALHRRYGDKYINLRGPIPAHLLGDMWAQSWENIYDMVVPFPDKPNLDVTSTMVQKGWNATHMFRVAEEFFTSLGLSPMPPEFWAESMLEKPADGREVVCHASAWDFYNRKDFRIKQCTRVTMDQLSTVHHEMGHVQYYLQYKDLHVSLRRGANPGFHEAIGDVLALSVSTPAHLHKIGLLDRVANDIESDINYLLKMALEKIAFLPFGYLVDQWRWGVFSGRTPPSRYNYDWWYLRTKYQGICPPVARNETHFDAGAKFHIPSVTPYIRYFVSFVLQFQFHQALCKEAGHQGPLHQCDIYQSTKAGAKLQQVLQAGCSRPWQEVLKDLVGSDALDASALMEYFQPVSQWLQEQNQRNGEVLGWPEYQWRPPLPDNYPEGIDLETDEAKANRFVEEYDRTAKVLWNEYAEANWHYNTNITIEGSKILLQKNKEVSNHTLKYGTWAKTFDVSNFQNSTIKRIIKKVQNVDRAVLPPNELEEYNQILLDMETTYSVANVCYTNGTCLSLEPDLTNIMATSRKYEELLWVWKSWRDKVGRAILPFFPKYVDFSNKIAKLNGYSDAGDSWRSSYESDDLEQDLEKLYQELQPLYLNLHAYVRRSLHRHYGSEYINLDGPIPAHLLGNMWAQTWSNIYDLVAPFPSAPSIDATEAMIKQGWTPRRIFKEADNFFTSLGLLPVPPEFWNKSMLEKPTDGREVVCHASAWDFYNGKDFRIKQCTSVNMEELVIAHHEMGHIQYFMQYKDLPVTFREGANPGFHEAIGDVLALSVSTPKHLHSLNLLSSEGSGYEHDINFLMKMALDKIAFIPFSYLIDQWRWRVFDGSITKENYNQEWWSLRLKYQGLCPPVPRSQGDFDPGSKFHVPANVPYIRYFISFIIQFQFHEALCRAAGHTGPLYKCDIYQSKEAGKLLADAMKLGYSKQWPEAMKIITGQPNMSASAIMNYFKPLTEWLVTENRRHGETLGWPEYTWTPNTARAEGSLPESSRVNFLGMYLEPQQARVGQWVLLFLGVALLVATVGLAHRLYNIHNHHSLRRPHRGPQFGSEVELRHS

Neprilysin = target: T2, Neprilysin (Rattus norvegicus, UniProt P07861); test: In vitro inhibition of Neutral Endopeptidase isolated from rat kidney.; conditions: read-out: I50
T2 sequence (P07861 whole entry): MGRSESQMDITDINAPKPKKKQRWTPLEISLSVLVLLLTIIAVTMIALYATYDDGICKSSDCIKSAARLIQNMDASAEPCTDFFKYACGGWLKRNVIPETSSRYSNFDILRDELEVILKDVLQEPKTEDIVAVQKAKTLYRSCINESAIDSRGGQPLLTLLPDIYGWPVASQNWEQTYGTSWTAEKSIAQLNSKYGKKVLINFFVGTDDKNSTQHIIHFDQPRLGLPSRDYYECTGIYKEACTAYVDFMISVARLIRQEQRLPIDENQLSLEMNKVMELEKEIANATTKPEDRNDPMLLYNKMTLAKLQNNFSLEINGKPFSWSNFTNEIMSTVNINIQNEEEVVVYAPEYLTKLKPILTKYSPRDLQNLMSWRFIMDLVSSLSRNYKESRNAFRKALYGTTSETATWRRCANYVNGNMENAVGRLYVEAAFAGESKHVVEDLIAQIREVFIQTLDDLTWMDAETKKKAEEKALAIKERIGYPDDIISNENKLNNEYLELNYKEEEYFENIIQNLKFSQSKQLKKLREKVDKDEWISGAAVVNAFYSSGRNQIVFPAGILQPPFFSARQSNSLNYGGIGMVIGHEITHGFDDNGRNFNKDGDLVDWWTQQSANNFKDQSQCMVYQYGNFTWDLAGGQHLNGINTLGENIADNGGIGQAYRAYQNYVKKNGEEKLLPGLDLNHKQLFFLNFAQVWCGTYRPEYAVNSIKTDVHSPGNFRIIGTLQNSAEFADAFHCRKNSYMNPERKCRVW

Compound: O=C(O)CN1C(=O)[C@@H](NC(=O)[C@@H](S)Cc2ccccc2)CSc2ccccc21
- ED50 (Rattus norvegicus): 0.14 µmol/kg
- IC50 [1]: 13 nM

Compound: O=C(O)CN1C(=O)[C@@H](NC(=O)[C@@H](CS)Cc2ccccc2)CSC[C@H]1c1ccccc1
- IC50 [1]: 22 nM

Compound: O=C(O)CN1CCSC[C@H](NC(=O)[C@@H](CS)Cc2ccccc2)C1=O
- IC50 [1]: 100 nM

Compound: O=C(O)CN1C(=O)[C@@H](NC(=O)[C@@H](CS)Cc2ccccc2)CS[C@@H]1c1ccccc1
- IC50 (Neprilysin): 2.5 nM
- IC50 [1]: 167 nM

Compound: O=C(O)CN1CCSC[C@H](NC(=O)[C@@H](S)Cc2ccccc2)C1=O
- ED50 (Rattus norvegicus): 4.4 µmol/kg
- IC50 (Neprilysin): 244 nM
- IC50 [1]: 67 nM

Compound: O=C(O)CN1C[C@H](c2ccccc2)SC[C@H](NC(=O)[C@@H](S)Cc2ccccc2)C1=O
- IC50 (Neprilysin): 2040 nM
- IC50 [1]: 290 nM

Compound: O=C(O)CN1C(=O)[C@@H](NC(=O)[C@@H](S)Cc2ccccc2)CSC[C@H]1c1ccccc1
- ED50 (Rattus norvegicus): 0.49 µmol/kg
- IC50 [1]: 29 nM

Compound: O=C(O)CN1C(=O)[C@@H](NC(=O)[C@@H](CS)Cc2ccccc2)CSc2ccccc21
- ED50 (Rattus norvegicus): 3.96 µmol/kg
- IC50 (Neprilysin): 1 nM
- IC50 [1]: 17 nM

Compound: O=C(O)CN1CSCC[C@H](NC(=O)[C@@H](S)Cc2ccccc2)C1=O
- IC50 (Neprilysin): 535 nM
- IC50 [1]: 61 nM

Compound: O=C(O)CN1C(=O)[C@H](NC(=O)[C@@H](S)Cc2ccccc2)CS[C@@H]1c1ccccc1
- ED50 (Rattus norvegicus): 0.21 µmol/kg
- IC50 [1]: 20 nM

Compound: O=C(O)CN1C[C@@H](c2ccccc2)SC[C@H](NC(=O)[C@@H](S)Cc2ccccc2)C1=O
- ED50 (Rattus norvegicus): < 0.15 µmol/kg
- IC50 (Neprilysin): 99 nM
- IC50 [1]: 40 nM

Compound: O=C(O)CN1C[C@@H](c2ccccc2)SC[C@H](NC(=O)[C@@H](CS)Cc2ccccc2)C1=O
- ED50 (Rattus norvegicus): > 1.5 µmol/kg
- IC50 [1]: 33 nM

Compound: CC1(C)CSC[C@H](NC(=O)[C@@H](S)Cc2ccccc2)C(=O)N1CC(=O)O
- IC50 [1]: 13.8 nM

Compound: C[C@@H]1SCC[C@H](NC(=O)[C@@H](S)Cc2ccccc2)C(=O)N1CC(=O)O
- IC50 [1]: 11.7 nM

Compound: O=C(O)CN1C(=O)[C@@H](NC(=O)[C@@H](S)Cc2ccccc2)CS[C@@H]1c1ccccc1
- ED50 (Rattus norvegicus): 2.75 µmol/kg
- IC50 [1]: 25 nM

Compound: O=C(O)CN1C(=O)[C@H](NC(=O)[C@@H](CS)Cc2ccccc2)CS[C@@H]1c1ccccc1
- IC50 (Neprilysin): 126 nM
- IC50 [1]: 123 nM

Compound: O=C(O)CN1C(=O)[C@@H](NC(=O)[C@@H](S)Cc2ccccc2)CS[C@H]1c1ccccc1
- IC50 [1]: 73 nM

Compound: O=C(O)CN1C(=O)[C@@H](NC(=O)[C@@H](CS)Cc2ccccc2)CS[C@H]1c1ccccc1
- IC50 (Neprilysin): 2.7 nM
- IC50 [1]: 115 nM
